Measurements from ChEMBL document CHEMBL5226287, “Small organic molecules targeting the energy metabolism of Mycobacterium tuberculosis” (Eur J Med Chem, 2021).
In brackets after ≈: the same amount, converted by molar mass. Starred links: 1 amine or outer side, 2 acyl side, 3 side chain; linkers in the order of their positions; H or OH if unused. Non-standard residues stand in square brackets, D forms with d. Residues, ends and D or L forms follow the SMILES beside them. ξ: configuration not given here. *: point of attachment. X1 = CCC(=O)C[C@@H](O)C[C@@H](C)C[C@H](N[*:1])C(=O)[*:2]; Alaψ(CH2NMeCH2CH2OH) = C[C@@H](CN(C)CCO)N*; Decanoyl(2R-Me) = CCCCCCCC[C@@H](C)C(=O)*; Ile(3ξ) = CCC(C)[C@H](N)C(=O)O; ξβ3hP = O=C(O)CC1CCCN1; Aib = CC(C)(N)C(=O)O

Experiments:
[1] = system: Mycobacterium tuberculosis; assay: Inhibition of ATP synthesis in Mycobacterium tuberculosis H37Rv derived membrane vesicle incubated for 60 mins by luciferase based assay; assay type: functional; conditions: 1 h
[2] = system: Mycobacterium tuberculosis; assay: Antibacterial activity against ATP synthesis in Mycobacterium tuberculosis H37Rv derived membrane vesicle incubated for 60 mins by luciferase based assay; assay type: functional; conditions: 1 h
[3] = system: Mycobacterium tuberculosis; assay: Antimycobacterial activity against Mycobacterium tuberculosis H37Rv after 14 days; assay type: functional; conditions: 336 h, time 14 day
[4] = Inhibition of Mycobacterium tuberculosis TFP incubated for 60 mins by UPLC based assay
[5] = system: Mycobacterium tuberculosis; assay: Antitubercular activity against Mycobacterium tuberculosis H37Rv infected in THP-1 cells assessed as intracellular bacterial growth measured over 6 days; assay type: functional; conditions: 144 h, time 6 day
[6] = system: Mycobacterium tuberculosis; assay: Antimycobacterial activity against Mycobacterium tuberculosis H37Rv; assay type: functional, organism-based
[7] = system: Mycobacterium tuberculosis; assay: Antibacterial activity against Mycobacterium tuberculosis H37Rv ATCC 27294 assessed as reduction in microbial growth in GAST media; assay type: functional
[8] = Kinetic aqueous solubility of the compound in 2.5% DMSO/PBS at pH 7.4 incubated for 2 hrs by nephelometry analysis; assay type: physicochemical; conditions: PBS with 2.5% DMSO, read-out: Kinetic_solubility
[9] = system: Mycobacterium tuberculosis; assay: Antibacterial activity against Mycobacterium tuberculosis H37Rv-LP ATCC 25618 assessed reduction in bacterial growth by microplate alamar blue assay; assay type: functional
[10] = system: Mycobacterium tuberculosis; assay: Antibacterial activity against Mycobacterium tuberculosis H37Rv ATCC 25618 assessed as complete inhibition of bacterial growth measured after 5 days by spectrophotometry method; assay type: functional; conditions: H37Rv ATCC 25618, 120 h, time 5 day
[11] = system: Mycobacterium tuberculosis; assay: Antitubercular activity against Mycobacterium tuberculosis H37Rv assessed as growth inhibition in presence of ATP; assay type: functional
[12] = Inhibition of Mycobacterium smegmatis ptpB expressed in Escherichia coli […] cells in the presence of ATP cells using 6,8-difluoromethylumbelliferyl phosphate as substrate incubated for 30 mins by fluorescence based assay; design: species or system Mycolicibacterium smegmatis
[13] = system: Mycobacterium tuberculosis; assay: Antibacterial activity against Mycobacterium tuberculosis H37Rv in macrophages by CLSI broth microdilution method; assay type: functional
[14] = system: Mycobacterium tuberculosis; assay: Antibacterial activity against Mycobacterium tuberculosis H37Rv assessed as reduction bacterial growth after 14 days by micro broth dilution method; assay type: functional; conditions: 336 h, time 14 day
[15] = system: Mycobacterium tuberculosis; assay: Antibacterial activity against Mycobacterium tuberculosis H37Rv in the presence of ATP synthase; assay type: functional
[16] = Inhibition of Mycobacterium tuberculosis H37Rv ATP synthase
[17] = system: Mycobacterium tuberculosis; assay: Antibacterial activity against Mycobacterium tuberculosis H37Rv assessed as greater inhibition of microbial growth in presence of depletion of ATP levels by microplate alamar blue assay; assay type: functional, organism-based
[18] = system: Mycobacterium tuberculosis; assay: Antibacterial activity against Mycobacterium tuberculosis H37Rv after 7 days by resazurin dye-based assay; assay type: functional; conditions: time 7 day
[19] = system: Mycobacterium tuberculosis; assay: Antibacterial activity against Mycobacterium tuberculosis assessed as inhibition of bacterial growth in the presence of NADH II dehydrogenase; assay type: functional, organism-based
[20] = system: Mycobacterium tuberculosis; assay: Antibacterial activity against Mycobacterium tuberculosis H37Rv-MA ATCC 27294 assessed reduction in bacterial growth by microplate alamar blue assay; assay type: functional
[21] = system: HepG2; assay: Cytotoxicity against human HepG2 cells assessed as cell viability at 100 uM by MTT assay; assay type: functional; conditions: read-out: TD50 (the source's name)
[22] = system: Mycobacterium tuberculosis; assay: Antitubercular activity against Mycobacterium tuberculosis H37Rv incubated for 14 days in GAST/FE medium by Alamar blue assay; assay type: functional; conditions: 336 h, time 14 day
[23] = system: Mycobacterium tuberculosis; assay: Antitubercular activity against Mycobacterium tuberculosis H37Rv assessed as inhibition of bacterial growth by fluorescence based analysis; assay type: functional
[24] = system: Mycolicibacterium smegmatis; assay: Antibacterial activity against Mycobacterium smegmatis assessed as inhibition of bacterial growth in the presence of NADH II dehydrogenase; assay type: functional, organism-based
[25] = system: Mycobacterium tuberculosis; assay: Antibacterial activity against Mycobacterium tuberculosis H37Rv ATCC assessed as reduction in bacterial growth by microdilution method; assay type: functional
[26] = system: Mycobacterium tuberculosis; assay: Antibacterial activity against Mycobacterium tuberculosis H37Rv assessed as inhibition of bacterial growth by microdilution method; assay type: functional
[27] = system: Mycobacterium tuberculosis; assay: Antibacterial activity against Mycobacterium tuberculosis H37Rv assessed as reduction in bacterial growth in the presence of resazurin reduction under microplate alamarBlue assay; assay type: functional
[28] = system: Mycobacterium tuberculosis; assay: Antibacterial activity against Mycobacterium tuberculosis cytochrome bd oxidase assessed as reduction in bacterial growth in the presence of resazurin reduction under microplate alamarBlue assay; assay type: functional
[29] = system: Mycobacterium tuberculosis; assay: Antibacterial activity against Mycobacterium tuberculosis cytochrome bd oxidase assessed as reduction in bacterial growth in the presence of resazurin reduction under by microdilution method; assay type: functional
[30] = Lipophilicity, log P of the compound at pH 6.5; assay type: physicochemical; conditions: buffer

Nc1c2c(nc3sc4c(c13)CCCCC4)CCCC2
IC50 [1]: 3400 nM | MIC50 [2]: 1.7 µM (≈ 0.463 µg/mL)

O=C(/C=C/c1cccs1)N1CCN(Cc2ccc3c(c2)OCO3)CC1
MIC [3]: 0.05 µM (≈ 0.0178 µg/mL) | IC50 [4]: 0.1 µg/mL (≈ 0.281 µM) | MIC [5]: 0.4 µM (≈ 0.143 µg/mL)

Cc1ccn2c(C(=O)NCc3ccccc3)c(C)nc2c1
IC50 [6]: 150 nM

O=C(CSc1nc2ccccc2c(=O)[nH]1)NC1CCCCC1
MIC [7]: 0.3 µM | solubility kinetic at 2 h [8]: 83 µM (≈ 26.3 µg/mL)

CCc1nc2ccc(C)cc2n1CCCCOc1ccccc1
MIC50 [9]: 0.34 µM (≈ 0.105 µg/mL)

CCc1nc2ccccc2n1CCCCNc1ccccc1
MIC99 [10]: 0.47 µM (≈ 0.138 µg/mL)

CCc1nc2ccc(C)cc2n1CCCNc1ccc(C)cc1
MIC99 [10]: 0.061 µM (≈ 0.0188 µg/mL)

O=C(CNC1CCCCC1)N(c1ccccc1)c1ccccc1
MIC [11]: 5.23 µg/mL

COc1ccc(/C=C2/S/C(=N/N=C/c3ccccc3O)NC2=O)cc1
IC50 [12]: 312 nM | MIC90 [13]: 4 µg/mL (≈ 11.3 µM) | MIC90 [14]: 0.5 µg/mL (≈ 1.41 µM)

O=C(CNC1CCCC1)N(c1ccccc1)c1ccccc1
MIC [11]: 6.25 µg/mL

CN(C)Cc1ccc(-c2cc3cc(Br)ccc3nc2OCc2ccncc2)cc1
MIC [15]: 0.43 µg/mL | IC50 [16]: 20300 nM

CCCCNc1nc(CC)nc2sc(C)cc12
IC50 [17]: 840 nM

CCSc1nc(NC)c2ccc(F)c(F)c2n1
TD50 [18]: 0.02 µg/mL

C=CCN1NC(C(=O)N2CCSCC2)C2CC(NCc3ccc(Cl)s3)CCC21 (stereo not drawn)
IC50 [19]: 64.7 nM

CCc1nc2ccccc2n1CCCCSc1nc(-c2ccccc2)cs1
MIC50 [20]: 5.3 µM (≈ 2.09 µg/mL)

CCNc1nc(SCC)nc2ccccc12
CC50 [21]: > 5 µg/mL | TD50 [18]: 0.09 µg/mL

O=C(CSc1nc2ccccc2c(=O)[nH]1)NC1CCC(F)(F)CC1
MIC [7]: 0.5 µM

CN(C)CCN1CCN(c2ccc(-c3cc4cc(Br)ccc4nc3OCc3ccc4ccccc4c3)cc2)CC1
MIC [15]: 0.44 µg/mL | IC50 [16]: 38800 nM

CCc1ccn2c(C(=O)NCc3ccc(C)cc3)c(C)nc2c1
MIC [22]: 0.004 µM (≈ 0.00123 µg/mL)

Cc1ccc2nc(C)c(C(=O)NCc3ccc(Cl)nc3)n2c1
MIC [23]: 5 µM (≈ 1.57 µg/mL)

Cc1ccn2c(C(=O)NCc3cccc(OC(C)C)c3)c(C)nc2c1
IC50 [6]: 390 nM

O=C(/C=C/c1cscn1)N1CCN(Cc2ccc3c(c2)OCO3)CC1
MIC [3]: 0.1 µM (≈ 0.0357 µg/mL) | MIC [5]: 0.6 µM (≈ 0.214 µg/mL)

O=C(CSc1nc2cccc(F)c2c(=O)[nH]1)NC1CCC(F)(F)CC1
IC50 [24]: 10.7 nM

Cc1ccc2nc(C)c(C(=O)NCc3ccc(C(F)(F)F)cc3)n2c1
MIC [23]: 0.03 µM (≈ 0.0104 µg/mL)

O=C(CSc1nc2ccccc2c(=O)[nH]1)NCC1CCC(F)(F)CC1
MIC [7]: 0.8 µM | solubility kinetic at 2 h [8]: 250 µM (≈ 91.9 µg/mL) | IC90 [25]: 5100 nM

COc1ccc(CNC(=O)c2c(C)nc3ccc(Br)cn23)cc1
MIC [26]: > 50 µM | MIC [27]: 0.15 µM | MIC [28]: < 0.024 µM | MIC [29]: < 0.024 µM

CCCCCCCC[C@@H](C)C(=O)N1CCCC1CC(=O)N[C@@H](C[C@H](C)C[C@H](O)CC(=O)CC)C(=O)NC(C)(C)C(=O)NC(C)(C)C(=O)N[C@H](C(=O)N[C@H](C(=O)NC(C)(C)C(=O)NC(C)(C)C(=O)N[C@@H](C)CN(C)CCO)C(C)C)C(C)CC (stereo partly drawn) ({Decanoyl(2R-Me)}-[ξβ3hP][X1][Aib][Aib][Ile(3ξ)]V[Aib][Aib]-{Alaψ(CH2NMeCH2CH2OH)})
logD [30]: 4.37

Cc1ccc(-c2nc3ccc(C)cn3c2CC(=O)N(C)C)cc1 [ZOLPIDEM]
MIC [22]: 10 µM (≈ 3.07 µg/mL)
